# Legend:
# rat α1β2 GABAARs = molecular target: T1, rat α1β2 GABAARs (Rattus norvegicus, UniProt P62813+P63138); assay: Whole-cell patch clamp of GABA-evoked currents, HEK293 cells expressing α1β2; format: cell-based
# T1 construct: expressed in transfected cells; host or cells: HEK293
# Description: (§1) Co-expression of the α and β subunits is the minimum requirement for a functional recombinant GABAAR expressed in a heterologous cell line such as HEK293, while co-expression of the α, β and γ subunits is required for the recombinant receptor with a full pharmacological profile.[2] We therefore transiently expressed either rat α1β2 or α1β2γ2 subunits in HEK293 cells.
# HEK293 cells were transiently transfected with rat GABAAR α1/β2 (a–e) or α1/β2/γ2 (f) subunits. Whole-cell voltage-clamp recordings were performed with a chloride-based intracellular recording solution at a holding membrane potential of −60 mV.
# (§2) HEK293 cells were cultured in DMEM (Invitrogen) supplemented with 10% fetal bovine serum. Cells were grown to 40–60% confluence and transiently transfected using Lipofectamine 2000 (Invitrogen) with 1:0.5–1 plasmid/lipid ratio. Cells were transfected with a pBK-CMV expression vector containing a rat recombinant GABAAR α, β or γ subunits. Co-transections were done with a plasmid ratio of 1:1 αβ and 2:2:1 for αβγ subunit combinations, respectively. pcDNA3.1-GFP was also co-transfected along with GABAAR subunits as a transfected marker in order to facilitate the visualization of the transfected cells during electrophysiological experiments. Cells were re-plated on glass coverslips after 15–20 h transfection and were cultured for an additional 15–24 h before whole-cell patch-clamp recordings.
# (§3) Whole-cell patch-clamp recordings were performed under voltage-clamp mode using an Axopatch 200B or 1D patch-clamp amplifier (Molecular Devices) on HEK293 cells and cultured neurons. Whole-cell currents were recorded at a holding potential of −60 mV, and signals were filtered at 2 kHz, digitized at 10 kHz (Digidata 1322 A). Recording pipettes (3–5 MΩ) were filled with the intracellular solution that contained (mM): CsCl 140, HEPES 10, Mg-ATP 4, QX-314 5, pH 7.20; osmolarity, 290–295 mOsm. BAPTA (10 mM) was added in the intracellular solution. The coverslips were continuously superfused with the extracellular solution containing (mM): NaCl 140, KCl 5.4, HEPES 10, MgCl2 1.0, CaCl2 1.3, glucose 20, pH 7.4; osmolarity, 305–315 mOsm. […] Dose–response curves were created by fitting data to Hill equation: I = Imax/[1 + (EC50/[A])^n], where I is the current, Imax is the maximum current, [A] is a given concentration of agonist, n is the Hill coefficient. […] All experiments were performed at room temperature.
# rat α1β2γ2 GABAARs = molecular target: T2, rat α1β2γ2 GABAARs (Rattus norvegicus, UniProt P62813+P63138); assay: Whole-cell patch clamp of GABA-evoked currents, HEK293 cells expressing wild-type α1β2γ2; format: cell-based
# T2 construct: expressed in transfected cells; host or cells: HEK293
# Method: as §1, §2, §3
# T1 sequence (P62813 28-455): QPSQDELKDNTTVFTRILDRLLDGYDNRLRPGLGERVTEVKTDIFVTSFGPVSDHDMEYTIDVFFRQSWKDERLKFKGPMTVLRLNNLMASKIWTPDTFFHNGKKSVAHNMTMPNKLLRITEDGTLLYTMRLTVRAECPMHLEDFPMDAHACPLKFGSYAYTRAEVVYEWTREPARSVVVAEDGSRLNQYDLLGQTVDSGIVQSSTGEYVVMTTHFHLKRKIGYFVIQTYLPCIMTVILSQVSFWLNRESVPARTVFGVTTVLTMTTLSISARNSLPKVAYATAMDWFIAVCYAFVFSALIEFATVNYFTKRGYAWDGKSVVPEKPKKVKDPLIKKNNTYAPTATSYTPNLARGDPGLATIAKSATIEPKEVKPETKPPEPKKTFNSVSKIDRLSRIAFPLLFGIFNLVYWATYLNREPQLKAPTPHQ
# T1 sequence (P63138 26-474): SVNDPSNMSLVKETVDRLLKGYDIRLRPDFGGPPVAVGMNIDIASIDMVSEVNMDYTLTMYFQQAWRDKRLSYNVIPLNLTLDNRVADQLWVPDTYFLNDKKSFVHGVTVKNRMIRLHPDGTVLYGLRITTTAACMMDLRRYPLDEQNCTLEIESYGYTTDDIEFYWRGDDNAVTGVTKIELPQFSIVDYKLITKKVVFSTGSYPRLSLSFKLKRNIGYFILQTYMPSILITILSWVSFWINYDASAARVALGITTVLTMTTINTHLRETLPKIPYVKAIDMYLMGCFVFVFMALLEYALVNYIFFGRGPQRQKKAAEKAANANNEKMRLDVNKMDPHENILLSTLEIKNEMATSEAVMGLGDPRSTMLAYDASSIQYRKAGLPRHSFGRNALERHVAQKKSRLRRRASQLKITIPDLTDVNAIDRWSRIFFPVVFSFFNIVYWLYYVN
# T2 sequence (P62813 28-455): as the sequence (P62813 28-455) above
# T2 sequence (P63138 26-474): as the sequence (P63138 26-474) above
# T2 sequence (P18508 39-466 partner): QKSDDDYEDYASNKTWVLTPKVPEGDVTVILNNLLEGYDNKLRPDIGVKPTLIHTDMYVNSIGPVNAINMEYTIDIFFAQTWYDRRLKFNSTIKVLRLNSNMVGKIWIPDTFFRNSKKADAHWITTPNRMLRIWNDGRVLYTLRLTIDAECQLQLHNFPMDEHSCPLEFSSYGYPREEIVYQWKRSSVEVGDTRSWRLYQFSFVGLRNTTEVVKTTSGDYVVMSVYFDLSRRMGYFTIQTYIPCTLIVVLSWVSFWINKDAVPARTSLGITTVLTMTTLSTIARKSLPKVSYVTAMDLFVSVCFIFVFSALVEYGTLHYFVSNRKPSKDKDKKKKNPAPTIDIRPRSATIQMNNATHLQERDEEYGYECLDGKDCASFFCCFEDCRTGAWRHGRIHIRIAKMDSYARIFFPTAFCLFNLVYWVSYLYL
compound,measurement,setting,value
"N[C@@H](CCC(=O)O)C(=O)O [glutamate, Glutamate]",amplitude of GABA-induced currents with glutamate co-applied,rat α1β2 GABAARs,331.2 ± 44.5%
same,current produced by glutamate on its own,rat α1β2 GABAARs,no noticeable current
same,lowest effective dose (20% potentiation),rat α1β2 GABAARs,around 30 μM
same,potentiation effect at saturated GABA concentration,rat α1β2 GABAARs,almost no potentiation effect
same,EC50,"rat α1β2 GABAARs; potentiation of 1 μM GABA-induced currents, read-out: EC50 of glutamate potentiation",~180 µM
same,"GABA currents in presence of ligand, compared with GABA alone",rat α1β2γ2 GABAARs,169.3 ± 6.9%
same,Relative potentiation,rat α1β2γ2 GABAARs,100.0%
